Test [1] deals with FLAG-tagged PRMT1 or His-tagged PRMT1. As to the kind of experiment: Radioactive in vitro methyltransferase assay, autoradiography (core histones or GST-GAR). Type of test: biochemical, rat, human. Conditions: 100 μM compound, [14C]-methyl-SAM, vs DMSO-treated control. An excerpt:
Given that the effects of the PRMT1 activators had been screened and quantified so far using the F-PRMT assay, we next assessed the efficacy of the selected compounds in stimulating PRMT1-mediated methylation of natural substrates. To this end, we conducted in vitro methyltransferase assays using recombinant PRMT1 and core histones or GST-tagged GAR (glycine-arginine-rich domain of fibrillarin) as substrates of PRMT1. , Addition of the cofactor [^14C]-methyl-SAM allowed for the visualization of radiolabeled methyl group incorporation into the substrate proteins by SDS-PAGE and autoradiography or by liquid scintillation counting. […] It is important to note that PRMT1 methylates both H2A and H4, albeit with variable efficiency. […] As a result, the methylation signals of both histones were considered in the quantification process (Figure A, B).
As negative control (Ctrl (−)), PRMT1 enzymes and [^14C-methyl]-SAM were incubated without substrates. Subsequently, samples were separated by SDS-PAGE, blotted, and analyzed by autoradiography. Substrates (H2A, H4 or GST-GAR) and molecular weights (kDa) of the protein marker are indicated. Black lines designate composite images, assembled from the same blots and exposure times. The methylation signals of the substrates were densitometrically quantified, and expressed relative to the DMSO-treated control, as indicated by the numbers below the autoradiographs. Representative results are depicted, with quantification graphs (below the autoradiographs in A and B) summarizing biological replicates. […] Subsequently, GST-GAR was immobilized on glutathione-beads and PRMT1 activity was measured by quantifying the incorporation of ^14C-methyl groups (in cpm) using liquid scintillation counting. […] Cell viability was quantified using the CellTiter-Glo assay. Viability of compound-treated cells is shown in % relative to the viability of solvent-treated cells, which was set to 100% (mean ± SD, n = 3), and then plotted against the logarithm of the compound concentrations. Concentration-viability curves were fitted by nonlinear regression, with the half-maximal inhibitory concentration (IC50) of the compounds for PANC-1 cell viability and the coefficient of determination (R^2) indicated. […] Subsequently, whole-cell extracts were prepared and analyzed by Western blot using antibodies against ADMA, ACTIN (ACT), and VINCULIN (VINC), of which the latter two stainings served as loading controls. Molecular weights (kDa) of the protein marker are indicated. All the ADMA signals per lane were densitometrically quantified, normalized to the signal of the respective loading control and expressed relative to the DMSO-treated control, as indicated by the numbers below the immunostainings. […]

The subject of a further test is PANC-1 cells. Kind of test: Annexin V/PI flow cytometry apoptosis assay, PANC-1. Type of test: cell-based, human. The settings on record: TR-07 10 μM; for gemcitabine-induced apoptosis, AV/PI flow cytometry, co-treatment: TR-033 5 µM, TR-036 10 µM, ICTR-059 5 µM, after 24 h gemcitabine 1 μM, 48 h, vs gemcitabine alone. How it is done:
6 Effect of small-molecule modulators on gemcitabine-induced apoptosis and tumor growth of PDAC cells. […] After 2 h, gemcitabine (GEM) was added at increasing concentrations (10 and 25 nM) or not (−) for another incubation of 72 h. Subsequently, the luminescence-based caspase3/7 assay was performed. The activity of caspase 3/7 in treated cells was normalized to the activity measured in untreated cells (dark gray bar), which was set to 1 (mean SD, n = 6 for PANC-1 and n = 4 for PaTu8988T; *: p ≤ 0.05, **: p ≤ 0.01, ***: p ≤ 0.001, using the student t-test). […] After 24 h, gemcitabine (GEM, 1 μM) was added (+) or not (−) for another incubation of 48 h. Subsequently, the apoptotic cell fraction was quantified in % by flow cytometry using FITC-labeled Annexin V (AV) and propidium iodide (PI) staining (in B: mean ± SD, n = 6 for PANC-1 and n = 5 for PaTu8988T; **: p ≤ 0.01, ***: p ≤ 0.001, ****: p ≤ 0.0001, using the student t-test). […] Viable cells are AV/PI double-negative (AV–/PI–, lower left quadrant, Q4), early apoptotic cells are AV single-positive (AV+/PI– upper left quadrant, Q1), late apoptotic cells are AV/PI double-positive (AV+/PI+, upper right quadrant, Q2), and necrotic cells are PI single-positive (AV–/PI+, lower right quadrant, Q3). The sum of early and late apoptotic cell numbers ([…] in %) is indicated in red. D-G: The workflow of the PDAC xenograft experiments in mice is depicted in D. PANC-1 cells (2 × 10^6 cells/mouse) were subcutaneously (s.c.) injected in the right flank of female athymic nude mice. Small tumor nodules appeared 6 days post-engraftment. […] Tumor volumes were measured every second day using a digital caliper. […] At the end of the 2 weeks, mice were sacrificed and tumors were dissected (F).
For quantification of apoptosis by Fluorescence Activated Cell Sorting (FACS), PANC-1 and PaTu8988T cells were seeded in 6-well plates (250 × 10^3 cells/well) and cultured in the absence or presence of compounds. After 24 h, gemcitabine was added or not for another 48 h. After harvesting and washing, unfixed cells (0.5–1 × 10^6) were incubated with FITC-labeled Annexin V and/or PI (BD Pharmingen) according to the manufacturer’s instructions. All samples were analyzed using a BD FACSCalibur flow cytometer (BD Bioscience). Data were acquired using the CellQuestPro program and analyzed with the FlowJo (FlowJo LLC) software. […]
induced apoptosis in PDAC cell lines.
After 24 hours, gemcitabine (GEM, 1 µM) was added (+) or not
(-) for another incubation of 48 hours. Subsequently, the apoptotic cell fraction was assessed by flow cytometry using FITC-labeled Annexin V (AV) and propidium iodide (PI) staining and quantified in % (mean ± SD, n=3-4; ns: not significant, *: p ≤0.05, **: p ≤0.01, ***: p ≤0.001, ****: p ≤0.0001, using the student t-test).
For orientation: Flow cytometry measures light scatter and fluorescence of single cells or particles in a stream.

Take `CN(C)Cc1cccc(CN/C=C2\C(=O)NC(=O)c3ccccc32)c1.Cl` [TR-07, (Z)-1-[3-({[(1,3-Dioxo-2,3-dihydroisoquinolin-4(1H)-lidene)methyl]amino}methyl)phenyl]-N,N-dimethylmethanaminium chloride]: the “PRMT1 methylation activity toward histones H2A and H4 and GAR, autoradiography” value in test [1] is given as “increased”. Moreover, in the test with PANC-1 cells, the “apoptosis, AV/PI flow cytometry, single agent” value was “did not significantly induce apoptosis”; the “gemcitabine-induced apoptosis, AV/PI flow cytometry, co-treatment” value (“gemcitabine-induced apoptosis” for short) is “significant increase in the early and late apoptotic stages”.

As for `CN(C)Cc1cccc(-c2ccc3[nH]c(=O)c4ccccc4c3c2)c1` [TR-033, 2-{3-[(Dimethylamino)methyl]phenyl}phenanthridin-6(5H)-One], in test [1], the “PRMT1 methylation activity toward histones H2A and H4 and GAR, autoradiography” value is listed as “increased”. Further, in the test on PANC-1 cells, the “gemcitabine-induced apoptosis” value is listed as “rather diminished the gemcitabine-triggered cell death”.

Regarding `CCN(CC)Cc1cccc(N/C=C2\C(=O)NC(=O)c3ccccc32)c1.Cl` [TR-036, (Z )-N-(3-{[(1,3-Dioxo-2,3-dihydroisoquinoline-4(1 H )-ylidene)methyl]amino}benzyl)-N -ethylethanaminium chloride], the “PRMT1 methylation activity toward histones H2A and H4 and GAR, autoradiography” value in test [1] was “increased”. Also, the “gemcitabine-induced apoptosis” value in the test on PANC-1 cells is on record as “rather diminished the gemcitabine-triggered cell death”.

Regarding “(Z)-2-(2-{[(1,3-Dioxo-2,3-dihydroisoquinolin-4(1H)-ylidene)methyl]amino}phenyl)-N,N-dimethylethan-1-aminium chloride [ICTR-059]”, in test [1], the “PRMT1 methylation activity toward histones H2A and H4 and GAR, autoradiography” value was “increased”. In addition, in the test with PANC-1 cells, the “gemcitabine-induced apoptosis” value is “had no effect”.

Source of the values: article PMC13576449, “Small-Molecule Activators of PRMT1: Discovery, SAR Analyses, and Proapoptotic Effects in Pancreatic Cancer Cells” (Journal of Medicinal Chemistry, 2026).
